One may read the IC50 as the concentration needed to halve the response being measured. A low value points to higher potency. A word on the Ki: it is a measure of affinity in units of concentration, obtained from inhibition or displacement. Read a high Ki as weaker binding. As a reminder, the Cmax is the peak of the concentration-time curve.

Read-outs that look alike come from different tables or passages of the source.

For one series, the target named is T1, CYP2C8 (Homo sapiens, UniProt P10632).
T1 sequence (P10632 1-490): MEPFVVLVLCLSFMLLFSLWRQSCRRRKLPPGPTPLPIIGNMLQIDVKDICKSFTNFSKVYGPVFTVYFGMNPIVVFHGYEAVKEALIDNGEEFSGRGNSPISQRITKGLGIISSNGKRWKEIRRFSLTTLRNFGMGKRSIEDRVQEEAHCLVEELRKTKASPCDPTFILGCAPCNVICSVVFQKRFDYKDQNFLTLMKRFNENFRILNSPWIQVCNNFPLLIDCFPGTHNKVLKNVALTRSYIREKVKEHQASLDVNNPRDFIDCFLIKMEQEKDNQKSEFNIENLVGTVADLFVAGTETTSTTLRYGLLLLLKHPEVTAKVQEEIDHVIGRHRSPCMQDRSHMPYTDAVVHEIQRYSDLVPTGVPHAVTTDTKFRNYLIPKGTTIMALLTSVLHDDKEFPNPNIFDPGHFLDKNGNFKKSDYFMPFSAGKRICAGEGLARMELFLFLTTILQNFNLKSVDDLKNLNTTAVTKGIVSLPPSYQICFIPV
Particulars: microsomes; for CYP2C8 activity expressed as % Vehicle Control: human, 10 min, pH 7.4.

A further series deals with T2, CYP1A2 (Homo sapiens, UniProt P05177).
T2 sequence (P05177 1-516): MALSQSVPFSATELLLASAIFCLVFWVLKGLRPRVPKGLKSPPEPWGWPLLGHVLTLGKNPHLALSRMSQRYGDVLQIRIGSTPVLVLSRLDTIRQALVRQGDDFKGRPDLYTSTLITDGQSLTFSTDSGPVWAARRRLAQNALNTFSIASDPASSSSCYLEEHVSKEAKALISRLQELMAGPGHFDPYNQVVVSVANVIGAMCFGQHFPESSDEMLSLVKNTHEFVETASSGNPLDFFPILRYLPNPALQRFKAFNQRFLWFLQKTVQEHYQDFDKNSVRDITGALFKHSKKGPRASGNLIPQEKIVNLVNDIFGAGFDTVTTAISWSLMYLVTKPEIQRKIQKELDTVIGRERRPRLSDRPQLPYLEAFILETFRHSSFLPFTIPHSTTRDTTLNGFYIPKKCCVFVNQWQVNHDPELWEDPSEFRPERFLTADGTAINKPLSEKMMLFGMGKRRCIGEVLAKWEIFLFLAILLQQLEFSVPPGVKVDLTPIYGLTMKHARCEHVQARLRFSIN
Particulars: microsomes; for CYP1A2 activity expressed as % Vehicle Control: human, 10 min, pH 7.4.

Another series has as its target T3, CYP2B6 (Homo sapiens, UniProt P20813).
T3 sequence (P20813 1-491): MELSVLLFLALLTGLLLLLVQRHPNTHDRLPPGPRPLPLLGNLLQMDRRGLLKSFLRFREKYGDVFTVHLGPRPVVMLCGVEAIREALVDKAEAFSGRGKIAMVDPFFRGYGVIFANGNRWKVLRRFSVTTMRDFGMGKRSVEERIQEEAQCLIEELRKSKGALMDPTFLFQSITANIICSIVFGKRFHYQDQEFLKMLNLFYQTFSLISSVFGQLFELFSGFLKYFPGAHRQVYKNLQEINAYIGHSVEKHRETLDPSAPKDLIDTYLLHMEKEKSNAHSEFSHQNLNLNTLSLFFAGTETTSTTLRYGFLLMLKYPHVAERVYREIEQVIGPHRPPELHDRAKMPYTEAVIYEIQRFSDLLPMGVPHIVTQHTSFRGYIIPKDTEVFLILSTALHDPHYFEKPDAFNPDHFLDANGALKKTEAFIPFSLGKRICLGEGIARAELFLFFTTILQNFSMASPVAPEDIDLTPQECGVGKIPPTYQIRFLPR
Particulars: microsomes.

For the next series, the target named is CYP2D6 (Homo sapiens, UniProt P10635). Particulars: microsomes.
For another series, the target named is CYP2C19 (Homo sapiens, UniProt P33261). The settings on record: microsomes.
The next series deals with CYP2C9 (Homo sapiens, UniProt P11712). Particulars: for CYP2C9 activity expressed as % Vehicle Control: HLM, diclofenac.
For series [1] the following is noted: in vivo, 5 mg.
For series [2], the system named is CYP3A4/5. The settings on record: microsomes.
Series [3] deals with CYP3A4/5. The settings on record: microsomes. The source holds these as a separate data set.
Series [4] relates to CYP3A4/5. Description: in vitro. The settings on record: human, microsomes, pH 7.4.
For series [5], the system named is CYP3A4/5. Description: Direct CYP3A4/5 inhibition, midazolam 1′-hydroxylation in pooled human liver microsomes. The settings on record: pH 7.4, probe midazolam 2 μM (1′-hydroxylation). In general terms: Liver microsomes are a subcellular fraction often used to study metabolism.

CYP2C9, sequence (P11712 whole entry): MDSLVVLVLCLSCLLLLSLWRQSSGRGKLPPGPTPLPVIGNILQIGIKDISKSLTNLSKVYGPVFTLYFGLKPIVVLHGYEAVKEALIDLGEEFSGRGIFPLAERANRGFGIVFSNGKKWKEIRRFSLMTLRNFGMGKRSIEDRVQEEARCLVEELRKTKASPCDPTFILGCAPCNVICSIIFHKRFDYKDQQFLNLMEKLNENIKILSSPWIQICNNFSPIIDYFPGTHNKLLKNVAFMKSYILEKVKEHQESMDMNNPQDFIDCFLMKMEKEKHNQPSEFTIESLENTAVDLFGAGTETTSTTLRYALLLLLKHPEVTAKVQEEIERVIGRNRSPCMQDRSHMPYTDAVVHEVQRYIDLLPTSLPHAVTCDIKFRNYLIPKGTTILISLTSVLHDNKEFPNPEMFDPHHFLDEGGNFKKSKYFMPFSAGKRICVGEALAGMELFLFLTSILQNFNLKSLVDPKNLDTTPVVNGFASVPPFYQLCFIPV
CYP2C19, sequence (P33261 whole entry): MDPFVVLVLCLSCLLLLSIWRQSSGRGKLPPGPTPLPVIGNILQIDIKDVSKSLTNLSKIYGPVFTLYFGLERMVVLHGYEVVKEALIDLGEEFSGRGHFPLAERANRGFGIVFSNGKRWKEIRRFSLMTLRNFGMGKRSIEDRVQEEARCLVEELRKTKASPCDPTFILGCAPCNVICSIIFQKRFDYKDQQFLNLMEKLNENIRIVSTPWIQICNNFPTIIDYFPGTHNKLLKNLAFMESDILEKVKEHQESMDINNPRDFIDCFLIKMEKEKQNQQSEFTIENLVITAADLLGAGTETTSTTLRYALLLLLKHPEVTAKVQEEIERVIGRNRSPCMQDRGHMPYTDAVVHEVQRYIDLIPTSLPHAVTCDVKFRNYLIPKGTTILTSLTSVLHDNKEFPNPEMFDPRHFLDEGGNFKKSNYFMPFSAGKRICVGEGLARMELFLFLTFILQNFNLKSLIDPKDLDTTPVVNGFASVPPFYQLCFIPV
CYP2D6, sequence (P10635 whole entry): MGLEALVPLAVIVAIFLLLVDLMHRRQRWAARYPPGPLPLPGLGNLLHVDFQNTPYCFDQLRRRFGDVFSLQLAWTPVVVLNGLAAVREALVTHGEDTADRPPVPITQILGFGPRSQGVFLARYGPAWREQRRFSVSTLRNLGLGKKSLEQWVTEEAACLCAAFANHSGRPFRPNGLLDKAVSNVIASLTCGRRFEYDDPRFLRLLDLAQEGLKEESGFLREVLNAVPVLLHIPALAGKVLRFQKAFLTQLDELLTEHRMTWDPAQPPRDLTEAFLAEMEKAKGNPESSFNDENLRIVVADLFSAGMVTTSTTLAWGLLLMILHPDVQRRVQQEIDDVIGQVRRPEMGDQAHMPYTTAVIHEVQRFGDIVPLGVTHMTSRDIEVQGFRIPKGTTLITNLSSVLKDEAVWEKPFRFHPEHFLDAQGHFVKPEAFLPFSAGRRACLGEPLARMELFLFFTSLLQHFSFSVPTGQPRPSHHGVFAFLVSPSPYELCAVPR

With `CC(C)(O)c1ccccc1CC[C@@H](SCC1(CC(=O)O)CC1)c1cccc(/C=C/c2ccc3ccc(Cl)cc3n2)c1` [Montelukast, reference compound], the “CYP2C8 activity expressed as % Vehicle Control” value on CYP2C8 (0.001 μM) came to 96.0 % Vehicle Control; on CYP2C8 (0.01 μM), 91.3 % Vehicle Control; at CYP2C8 (0.1 μM) it was 66.2 % Vehicle Control; on CYP2C8 (1 μM) it was 13.3 % Vehicle Control; at CYP2C8 (10 μM), 1.3 % Vehicle Control.
In the case of `Cc1nc2c([nH]1)c(=O)n(C)c(=O)n2Cc1ccco1` [Furafylline], the “CYP1A2 activity expressed as % Vehicle Control” value worked out at 103.9 % Vehicle Control on CYP1A2 (0.01 μM); 110.2 % Vehicle Control at CYP1A2 (0.1 μM); 88.5 % Vehicle Control at CYP1A2 (1 μM); 41.0 % Vehicle Control at CYP1A2 (10 μM); 10.1 % Vehicle Control on CYP1A2 (100 μM).
As to `N[C@@H]1C[C@H]1c1ccccc1` (racemic) [Tranylcypromine, reference compound], 3400 nM corresponded to half-maximal inhibition on CYP2B6 (IC50).
On to phenylcapsaicyn, for which, on CYP1A2, affinity was put at a Ki of 340 nM. Also, at CYP2C8, the half-maximal inhibitory concentration (IC50) is over 50000 nM and the “Inhibition of CYP2C8 in words” value is recorded as “no significant inhibition”. On CYP2D6, the Ki came out at 550 nM. Besides, on CYP2C19, the IC50 is over 50000 nM and the “Inhibition of CYP2C19 in words” value was “no significant inhibition”. Besides, at CYP2B6, the IC50 was over 50000 nM and the “Inhibition of CYP2B6 in words” value was “no significant inhibition”. In addition, on CYP2C9 (microsomes), the IC50 is over 50000 nM and the “Inhibition of CYP2C9 in words” value is on record as “no significant inhibition”. In addition, the highest concentration (Cmax) in series [1] was about 600 nM. In the series on CYP3A4/5 [2], the IC50 was over 50000 nM and the “Inhibition of CYP3A4/5 in words (testosterone)” value is listed as “no significant inhibition”. Also, in the series on CYP3A4/5 [3], the IC50 was over 50000 nM and the “Inhibition of CYP3A4/5 in words (midazolam)” value was “no significant inhibition”.
Consider `CCC(C)n1ncn(-c2ccc(N3CCN(c4ccc(OCC5COC(Cn6cncn6)(c6ccc(Cl)cc6Cl)O5)cc4)CC3)cc2)c1=O` (stereo not drawn) [Itraconazole], for which it took 30 nM to reach half-maximal inhibition with CYP3A4/5 [4] (IC50). In the series with CYP3A4/5 [5], this compound displayed an IC50 at 5 min of 210 nM.
Take `Nc1ccc(S(=O)(=O)Nc2ccnn2-c2ccccc2)cc1` [Sulfaphenazole, reference compound]: the “CYP2C9 activity expressed as % Vehicle Control” value was 102.1 % Vehicle Control at CYP2C9 (positive control 0.0025 μM); 95.7 % Vehicle Control at CYP2C9 (positive control 0.025 μM); 47.2 % Vehicle Control at CYP2C9 (positive control 0.25 μM); 10.1 % Vehicle Control on CYP2C9 (positive control 2.5 μM); 1.9 % Vehicle Control at CYP2C9 (positive control 25 μM).
